# Laboratory results published in the supplement of paper PMC10307832.
# Experiments:
# Assay in all cases: relative viability (nuclei count vs DMSO), 5 days (fraction); higher = more cells survive
# [1] = system: ABC-1
# How it was run: (§1)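 Five library-drug doses in √10 steps were combined with a fixed anchor-drug dose, or a single drug was given alone, by pin tool to lung cancer cell lines in 1536-well plates the day after seeding. Nuclei were stained and counted after 5 days. Relative viability is the nuclei count in treated wells over that in vehicle wells, taken as the median of duplicate plates.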
# [2] = system: EPLC-272H
# How it was run: as §1
# [3] = system: NCI-H1355
# How it was run: as §1
# [4] = system: H3255
# How it was run: as §1
# [5] = system: COR-L 105
# How it was run: as §1
# [6] = system: NCI-H2085
# How it was run: as §1
# [7] = system: NCI-H322M
# How it was run: as §1
# [8] = system: NCI-H1975
# How it was run: as §1
# [9] = system: NCI-H2087
# How it was run: as §1
# [10] = system: HCC-366
# How it was run: as §1
# [11] = system: ChaGo-K-1
# How it was run: as §1
# [12] = system: CAL-12T
# How it was run: as §1
# [13] = system: NCI-H2009
# How it was run: as §1
# [14] = system: SK-MES-1
# How it was run: as §1
# [15] = system: NCI-H2228
# How it was run: as §1
# [16] = system: NCI-H441
# How it was run: as §1
# [17] = system: NCI-H1993
# How it was run: as §1
# [18] = system: EKVX
# How it was run: as §1
# [19] = system: NCI-H2342
# How it was run: as §1
# [20] = system: HCC-827
# How it was run: as §1
# [21] = system: NCI-H460
# How it was run: as §1
# [22] = system: NCI-H1792
# How it was run: as §1
smiles,measurement,setting,value
CN1CCN(CCOc2cc(OC3CCOCC3)c3c(Nc4c(Cl)ccc5c4OCO5)ncnc3c2)CC1 [Saracatinib] + O=C(c1cc(Cc2n[nH]c(=O)c3ccccc23)ccc1F)N1CCN(C(=O)C2CC2)CC1 [Olaparib] (partner 8 µM),relative viability,[1]; first compound 0.02 µM,0.568
same,relative viability,[1]; first compound 0.2 µM,0.941
same,relative viability,[1]; first compound 0.6325 µM,0.706
same,relative viability,[1]; first compound 2 µM,0.751
same,relative viability,[2]; first compound 0.02 µM,0.946
same,relative viability,[2]; first compound 0.2 µM,0.714
same,relative viability,[2]; first compound 0.6325 µM,0.658
same,relative viability,[2]; first compound 2 µM,0.426
same,relative viability,[3]; first compound 0.02 µM,0.796
same,relative viability,[3]; first compound 0.2 µM,0.692
same,relative viability,[3]; first compound 0.6325 µM,0.817
same,relative viability,[3]; first compound 2 µM,0.706
same,relative viability,[4]; first compound 0.02 µM,0.623
same,relative viability,[4]; first compound 0.2 µM,0.496
same,relative viability,[4]; first compound 0.6325 µM,0.593
same,relative viability,[4]; first compound 2 µM,0.301
same,relative viability,[5]; first compound 0.02 µM,0.594
same,relative viability,[5]; first compound 0.2 µM,0.617
same,relative viability,[5]; first compound 0.6325 µM,0.698
same,relative viability,[5]; first compound 2 µM,0.698
same,relative viability,[6]; first compound 0.02 µM,0.802
same,relative viability,[6]; first compound 0.2 µM,0.602
same,relative viability,[6]; first compound 0.6325 µM,0.821
same,relative viability,[6]; first compound 2 µM,0.863
same,relative viability,[7]; first compound 0.02 µM,0.769
same,relative viability,[7]; first compound 0.2 µM,0.492
same,relative viability,[7]; first compound 0.6325 µM,0.636
same,relative viability,[7]; first compound 2 µM,0.402
same,relative viability,[8]; first compound 0.02 µM,0.787
same,relative viability,[8]; first compound 0.2 µM,0.793
same,relative viability,[8]; first compound 0.6325 µM,0.804
same,relative viability,[8]; first compound 2 µM,0.517
same,relative viability,[9]; first compound 0.02 µM,0.485
same,relative viability,[9]; first compound 0.2 µM,0.449
same,relative viability,[9]; first compound 0.6325 µM,0.552
same,relative viability,[9]; first compound 2 µM,0.515
same,relative viability,[10]; first compound 0.02 µM,0.343
same,relative viability,[10]; first compound 0.2 µM,0.0912
same,relative viability,[10]; first compound 0.6325 µM,0.264
same,relative viability,[10]; first compound 2 µM,0.199
same,relative viability,[11]; first compound 0.02 µM,0.423
same,relative viability,[11]; first compound 0.2 µM,0.28
same,relative viability,[11]; first compound 0.6325 µM,0.413
same,relative viability,[11]; first compound 2 µM,0.449
same,relative viability,[12]; first compound 0.02 µM,0.787
same,relative viability,[12]; first compound 0.2 µM,0.682
same,relative viability,[12]; first compound 0.6325 µM,0.825
same,relative viability,[12]; first compound 2 µM,0.701
same,relative viability,[13]; first compound 0.02 µM,0.709
same,relative viability,[13]; first compound 0.2 µM,0.477
same,relative viability,[13]; first compound 0.6325 µM,0.688
same,relative viability,[13]; first compound 2 µM,0.724
same,relative viability,[14]; first compound 0.02 µM,0.703
same,relative viability,[14]; first compound 0.2 µM,0.69
same,relative viability,[14]; first compound 0.6325 µM,0.49
same,relative viability,[14]; first compound 2 µM,0.299
same,relative viability,[15]; first compound 0.02 µM,0.966
same,relative viability,[15]; first compound 0.2 µM,0.617
same,relative viability,[15]; first compound 0.6325 µM,0.475
same,relative viability,[15]; first compound 2 µM,0.568
same,relative viability,[16]; first compound 0.02 µM,0.57
same,relative viability,[16]; first compound 0.2 µM,0.536
same,relative viability,[16]; first compound 0.6325 µM,0.634
same,relative viability,[16]; first compound 2 µM,0.532
same,relative viability,[17]; first compound 0.02 µM,1.03
same,relative viability,[17]; first compound 0.2 µM,1.02
same,relative viability,[17]; first compound 0.6325 µM,1.01
same,relative viability,[17]; first compound 2 µM,0.989
same,relative viability,[18]; first compound 0.02 µM,0.704
same,relative viability,[18]; first compound 0.6325 µM,0.91
same,relative viability,[18]; first compound 2 µM,0.38
same,relative viability,[19]; first compound 0.02 µM,0.55
same,relative viability,[19]; first compound 0.2 µM,0.312
same,relative viability,[19]; first compound 0.6325 µM,0.434
same,relative viability,[19]; first compound 2 µM,0.451
same,relative viability,[20]; first compound 0.02 µM,0.66
same,relative viability,[20]; first compound 0.2 µM,0.532
same,relative viability,[20]; first compound 0.6325 µM,0.192
same,relative viability,[20]; first compound 2 µM,0.16
same,relative viability,[21]; first compound 0.02 µM,0.416
same,relative viability,[21]; first compound 0.2 µM,0.285
same,relative viability,[21]; first compound 0.6325 µM,0.423
same,relative viability,[21]; first compound 2 µM,0.409
same,relative viability,[22]; first compound 0.02 µM,0.537
same,relative viability,[22]; first compound 0.2 µM,0.352
same,relative viability,[22]; first compound 0.6325 µM,0.644
same,relative viability,[22]; first compound 2 µM,0.385
